Assays:
Assay type in all cases: binding
AAK1 (121-471) = AAK1 (121-471) (Homo sapiens, UniProt Q2M2I8); assay: STD-NMR fragment screening, AAK1; settings: for AAK1 (STD-NMR hit flag): 1 = hit, 0 = no hit
Description: (§1) All fragments were stored at −20°C as solids in argon flushed glass bottles. For NMR screening, fragments were weighed and dissolved in DMSO-d6 to a stock concentration of 300 mM. Mother plates were prepared with a 100 mM concentration. From these plates, daughter plates were prepared with the fragments mixed in the plates to a concentration of 50 mM for each fragment. Daughter plates were opened a maximum of eight times. The plates were argon flushed and sealed with a HT121TS (HTA) and Foil Heat Seal (Biozym).
(§2) For long time measurements, like the protein ^1H NMR spectrum, the buffer exchange was performed twice to reduce residual buffer peaks. All experiments were performed on a Bruker Avance III HDX 700 instrument, equipped with a 5 mm Prodigy TCI cryo-probehead. For every protein, a standard ^1H NMR experiment with 1 k scans and water suppression through presaturation was performed. […] The on-resonance frequency, which was determined from the ^1H NMR spectra of the protein, was between 0.5 and 0.6 ppm; 40 ppm was used as the off-resonance frequency. For an interleaved acquisition of the on- and off-resonance, a pseudo-2D scheme was applied. The saturation was done by Gaussian pulses with a length of 50 ms and 60 dB of attenuation, with an interpulse delay of 1 ms leading to an excitation bandwidth of about 42 Hz. The screening was done with 16 scans of on- and off-resonance scans each, with a 3 s saturation time. The samples contained final concentrations of 20 µM protein, 10% (^V/V) DMSO-d6, and 1 mM of each of the two fragments. A ^1H-NMR experiment was performed for each compound to act as a reference spectrum in the STD experiments. All NMR experiments were carried out at 25°C.
(§3) Fifteen of these compounds contain the same halogen twice. No compound bears mixtures of different halogen atoms. Four proteins (AAK1, CAMK1G, IDO1, and DOT1L) were screened against this HEFLib using STD-NMR. A fragment was considered a hit if the peak intensity in the difference spectrum was three times higher than the local background noise. […] Chemical compatibility and peak complementarity were assured for these mixtures. Samples containing more than two fragments were avoided to minimize the possible target competition and to decrease the risk of fragment interactions. […] The ^1H reference NMR spectrum of the mixture is shown in red for comparison. […] As fragment mixtures can lead to competitive effects between their fragments, it is not advised to use the quantification of peak mixtures for hit ranking.

CAMK1G (1-320) = biological target: T1, CAMK1G (1-320) (Homo sapiens, UniProt Q96NX5); assay: STD-NMR fragment screening, CAMK1G; settings: for CAMK1G (STD-NMR hit flag): 1 = hit, 0 = no hit
T1 construct: made in house; host or cells: E. coli BL21 (DE3) pLysS
T1 sequence (Q96NX5 1-320): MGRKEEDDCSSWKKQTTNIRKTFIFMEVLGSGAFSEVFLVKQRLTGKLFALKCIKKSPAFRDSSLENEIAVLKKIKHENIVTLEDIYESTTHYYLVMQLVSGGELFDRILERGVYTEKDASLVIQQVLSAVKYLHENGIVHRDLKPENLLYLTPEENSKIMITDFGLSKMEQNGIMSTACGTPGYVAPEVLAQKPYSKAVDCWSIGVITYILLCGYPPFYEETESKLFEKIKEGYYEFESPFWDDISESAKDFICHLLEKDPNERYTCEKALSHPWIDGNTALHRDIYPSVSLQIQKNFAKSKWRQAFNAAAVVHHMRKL
Description: as §1, §2, §3

IDO1 (1-435) = biological target: T2, IDO1 (1-435) (Homo sapiens, UniProt P14902); assay: STD-NMR fragment screening, IDO1; settings: for IDO1 (STD-NMR hit flag): 1 = hit, 0 = no hit
T2 construct: His-tag of pET15b with TEV site (thrombin site replaced) (cleaved yes); made in house; host or cells: E. coli Rosetta 2 (DE3) pLysS
T2 sequence (P14902 whole entry, the tested form may be a part): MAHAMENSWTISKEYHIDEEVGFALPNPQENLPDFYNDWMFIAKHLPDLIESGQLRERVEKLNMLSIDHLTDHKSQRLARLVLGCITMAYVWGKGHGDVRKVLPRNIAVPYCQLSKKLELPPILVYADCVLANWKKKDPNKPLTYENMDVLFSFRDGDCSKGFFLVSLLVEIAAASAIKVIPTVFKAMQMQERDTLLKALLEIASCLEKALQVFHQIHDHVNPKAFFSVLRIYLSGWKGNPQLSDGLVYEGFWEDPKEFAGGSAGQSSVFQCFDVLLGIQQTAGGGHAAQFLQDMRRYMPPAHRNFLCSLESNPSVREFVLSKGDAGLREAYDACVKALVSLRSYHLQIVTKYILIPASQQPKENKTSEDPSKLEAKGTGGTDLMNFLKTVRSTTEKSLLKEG
Description: as §1, §2, §3

DOT1L (1-416) = biological target: T3, DOT1L (1-416) (Homo sapiens, UniProt Q8TEK3); assay: STD-NMR fragment screening, DOT1L; settings: for DOT1L (STD-NMR hit flag): 1 = hit, 0 = no hit
T3 construct: made in house; host or cells: E. coli BL21 (DE3) pLysS
T3 sequence (Q8TEK3 1-416): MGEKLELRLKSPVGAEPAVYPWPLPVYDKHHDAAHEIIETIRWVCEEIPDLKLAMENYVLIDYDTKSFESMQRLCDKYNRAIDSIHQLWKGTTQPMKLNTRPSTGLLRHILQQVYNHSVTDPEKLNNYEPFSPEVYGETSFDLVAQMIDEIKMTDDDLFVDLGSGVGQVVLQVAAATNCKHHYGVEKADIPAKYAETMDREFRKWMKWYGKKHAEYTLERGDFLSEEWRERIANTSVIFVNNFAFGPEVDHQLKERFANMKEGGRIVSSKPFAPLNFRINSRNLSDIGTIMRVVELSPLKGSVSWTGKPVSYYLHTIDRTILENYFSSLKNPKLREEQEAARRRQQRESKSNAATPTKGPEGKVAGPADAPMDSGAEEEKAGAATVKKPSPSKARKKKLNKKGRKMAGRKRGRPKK
Description: as §1, §2, §3

[1] = 1 mM fragment, 20 µM protein, hit if peak in difference spectrum three times higher than local noise

Sequence of AAK1 (121-471) (Q2M2I8 46-315 limits assumed): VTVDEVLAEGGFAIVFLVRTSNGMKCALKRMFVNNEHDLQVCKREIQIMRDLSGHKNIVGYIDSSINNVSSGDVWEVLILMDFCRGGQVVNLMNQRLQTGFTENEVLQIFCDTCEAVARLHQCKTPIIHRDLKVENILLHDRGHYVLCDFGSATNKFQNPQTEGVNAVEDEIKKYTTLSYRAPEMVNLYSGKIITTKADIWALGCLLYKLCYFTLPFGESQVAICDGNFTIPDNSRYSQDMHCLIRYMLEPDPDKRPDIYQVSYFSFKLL

AAK1 (STD-NMR hit flag) (AAK1 (121-471))	CAMK1G (STD-NMR hit flag) (CAMK1G (1-320))	IDO1 (STD-NMR hit flag) (IDO1 (1-435))	DOT1L (STD-NMR hit flag) (DOT1L (1-416))	STD-NMR hit (AAK1 (121-471); [1])	STD-NMR hit (CAMK1G (1-320); [1])	STD-NMR hit (IDO1 (1-435); [1])	STD-NMR hit (DOT1L (1-416); [1])	SMILES
0	0	0	0					Clc1nsnc1N1CCOCC1 [Fragment B02297414]
1	0	0	0					OC1CCN(c2cc(Cl)ncn2)CC1 [Fragment B02297410]
0	0	1	0					O=C(O)c1c(Cl)cncc1Cl [Fragment B02297411]
1	0	0	0					Cn1nc(Br)c(C(=O)NCC(=O)O)c1N [Fragment B02291252]
0	1	0	0					OCc1cc2c(cc1Cl)OCO2 [Fragment B02291235]
0	0	0	0					NCc1cc(Cl)c2c(c1)OCCCO2 [Fragment B02291242]
0	0	0	0					COc1ncc(Br)cc1C(=O)O [Fragment B02297396]
1	0	0	0					Oc1cccc(O)c1Br [Fragment B02297401]
1	0	0	0					OCc1c(Cl)nc2sccn12 [Fragment B02291233]
0	0	1	0					COc1ncc(Cl)cc1C(=O)O [Fragment B02297429]
0	0	0	0					Nc1ncc(F)cc1I [Fragment B02291238]
0	0	0	0					OB(O)c1ccncc1Br [Fragment B02297399]
0	0	0	0					O=C(O)c1ncc(Cl)cc1Cl [Fragment B02297418]

Continued, compound first:

SMILES	AAK1 (STD-NMR hit flag) (AAK1 (121-471))	CAMK1G (STD-NMR hit flag) (CAMK1G (1-320))	IDO1 (STD-NMR hit flag) (IDO1 (1-435))	DOT1L (STD-NMR hit flag) (DOT1L (1-416))	STD-NMR hit (AAK1 (121-471); [1])	STD-NMR hit (CAMK1G (1-320); [1])	STD-NMR hit (IDO1 (1-435); [1])	STD-NMR hit (DOT1L (1-416); [1])
O=c1[nH]cnc(O)c1Br [Fragment B02289618]	0	0	0	0				
Cn1c(Cl)c(C#N)c(=O)n(C)c1=O [Fragment 1234]					pan-target hit	pan-target hit	pan-target hit	pan-target hit
Cc1noc(C)c1Br [Fragment B02289596]	0	1	0	0				
COCn1nc(Br)[nH]c1=O [Fragment B02290404]	0	0	0	0				
CN1CCN(C(CN)c2ccccc2Cl)CC1 (stereo not drawn) [Fragment B02290483]	0	0	0	0				
Brc1cnc(C2OCCO2)s1 [Fragment B02290407]	1	0	0	0				
O=[N+]([O-])c1cnc(Br)[nH]1 [Fragment B02289601]	1	0	1	0				
Fc1cnccc1I [Fragment B02290473]	1	1	0	0				
Cn1ccc(Br)n1 [Fragment B02289620]	0	0	1	0				
Nc1nc(Cl)nc2[nH]cnc12 [Fragment B02290476]	0	0	0	0				
CCOC(=O)c1coc(Cl)n1 [Fragment B02289613]	0	0	0	0				
Brc1cnn(-c2nnn[nH]2)c1 [Fragment B02290113]	1	0	1	0				
O=C(O)c1ccc(Cl)c(O)c1 [Fragment B02289615]	0	0	0	0				
Clc1ccc(CN2CCNCC2)s1 [Fragment B02291241]	0	0	0	0				
Cc1ncccc1Br [Fragment B02289619]	0	1	0	0				
O=C(O)c1cc(Br)c[nH]c1=O [Fragment B02290523]	0	0	0	0				
Clc1cnccn1 [Fragment B02291240]	0	0	0	0				
O=C(O)C(=O)Nc1ccc(Cl)cn1 [Fragment B02290408]	0	0	0	0				
Brc1cnc2cnccn12 [Fragment B02289617]	0	1	0	0				
Nc1ncc(C(F)(F)F)cc1Cl [Fragment B02291219]	1	1	0	0				

From article PMC8847695 (Frontiers in Chemistry, 2022)
